In paper PMC10176470, “Engaging a Non-catalytic Cysteine Residue Drives Potent and Selective Inhibition of Caspase-6” (Journal of the American Chemical Society, 2023):

Assays:
Type in all cases: cell-based
[1] = target: proteins of HEK293T cells transiently overexpressing caspase-6 (Homo sapiens, UniProt P55072); conditions: exp_ref Probe; protein VCP (P55072); analysis C6
[2] = target: T1, proteins of HEK293T cells transiently overexpressing caspase-6 (Homo sapiens, UniProt Q14103); conditions: protein HNRNPD (Q14103)
T1 sequence (Q14103 1-355): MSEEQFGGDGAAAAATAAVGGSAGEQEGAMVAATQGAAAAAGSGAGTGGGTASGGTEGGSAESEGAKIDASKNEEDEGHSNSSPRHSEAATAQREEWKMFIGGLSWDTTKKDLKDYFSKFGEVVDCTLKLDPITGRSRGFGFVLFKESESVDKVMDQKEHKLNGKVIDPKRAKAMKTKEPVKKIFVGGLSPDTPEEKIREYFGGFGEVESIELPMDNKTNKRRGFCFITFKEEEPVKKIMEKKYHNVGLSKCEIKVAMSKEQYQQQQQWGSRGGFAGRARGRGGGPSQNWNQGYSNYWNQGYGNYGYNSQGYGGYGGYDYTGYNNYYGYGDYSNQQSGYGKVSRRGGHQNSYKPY

[3] = target: proteins of HEK293T cells transiently overexpressing caspase-6 (Homo sapiens, UniProt P13804); conditions: exp_ref Probe; protein ETFA (P13804); analysis C6
[4] = target: proteins of HEK293T cells transiently overexpressing caspase-6 (Homo sapiens, UniProt Q9NR30); conditions: exp_ref Probe; protein DDX21 (Q9NR30); analysis C6
[5] = target: proteins of HEK293T cells transiently overexpressing caspase-6 (Homo sapiens, UniProt Q9H307); conditions: exp_ref Probe; protein PNN (Q9H307); analysis C6
Chain of proteins of HEK293T cells transiently overexpressing caspase-6 (Homo sapiens, UniProt Q9H307) (Q9H307 whole entry): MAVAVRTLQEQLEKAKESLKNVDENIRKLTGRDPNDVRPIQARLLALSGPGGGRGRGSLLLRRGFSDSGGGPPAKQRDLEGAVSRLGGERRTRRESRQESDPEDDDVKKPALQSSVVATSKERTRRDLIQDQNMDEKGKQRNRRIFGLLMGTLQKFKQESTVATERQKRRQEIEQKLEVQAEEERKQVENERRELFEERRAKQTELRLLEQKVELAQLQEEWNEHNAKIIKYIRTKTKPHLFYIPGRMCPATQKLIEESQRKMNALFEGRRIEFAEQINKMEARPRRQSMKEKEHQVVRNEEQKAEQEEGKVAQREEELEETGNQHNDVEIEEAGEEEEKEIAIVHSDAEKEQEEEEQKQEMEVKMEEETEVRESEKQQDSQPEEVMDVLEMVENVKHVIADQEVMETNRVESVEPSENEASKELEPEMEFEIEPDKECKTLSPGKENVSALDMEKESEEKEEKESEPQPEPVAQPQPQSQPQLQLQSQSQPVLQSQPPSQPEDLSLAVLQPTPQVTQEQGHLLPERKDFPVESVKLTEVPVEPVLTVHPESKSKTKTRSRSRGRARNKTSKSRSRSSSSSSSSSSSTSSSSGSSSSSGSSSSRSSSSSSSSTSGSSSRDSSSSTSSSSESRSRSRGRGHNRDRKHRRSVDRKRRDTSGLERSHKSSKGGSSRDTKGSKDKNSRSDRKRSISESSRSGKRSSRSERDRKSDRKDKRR

[6] = target: proteins of HEK293T cells transiently overexpressing caspase-6 (Homo sapiens, UniProt Q00610); conditions: exp_ref Probe; protein CLTC (Q00610); analysis C6
Chain of proteins of HEK293T cells transiently overexpressing caspase-6 (Homo sapiens, UniProt Q00610) (Q00610 whole entry): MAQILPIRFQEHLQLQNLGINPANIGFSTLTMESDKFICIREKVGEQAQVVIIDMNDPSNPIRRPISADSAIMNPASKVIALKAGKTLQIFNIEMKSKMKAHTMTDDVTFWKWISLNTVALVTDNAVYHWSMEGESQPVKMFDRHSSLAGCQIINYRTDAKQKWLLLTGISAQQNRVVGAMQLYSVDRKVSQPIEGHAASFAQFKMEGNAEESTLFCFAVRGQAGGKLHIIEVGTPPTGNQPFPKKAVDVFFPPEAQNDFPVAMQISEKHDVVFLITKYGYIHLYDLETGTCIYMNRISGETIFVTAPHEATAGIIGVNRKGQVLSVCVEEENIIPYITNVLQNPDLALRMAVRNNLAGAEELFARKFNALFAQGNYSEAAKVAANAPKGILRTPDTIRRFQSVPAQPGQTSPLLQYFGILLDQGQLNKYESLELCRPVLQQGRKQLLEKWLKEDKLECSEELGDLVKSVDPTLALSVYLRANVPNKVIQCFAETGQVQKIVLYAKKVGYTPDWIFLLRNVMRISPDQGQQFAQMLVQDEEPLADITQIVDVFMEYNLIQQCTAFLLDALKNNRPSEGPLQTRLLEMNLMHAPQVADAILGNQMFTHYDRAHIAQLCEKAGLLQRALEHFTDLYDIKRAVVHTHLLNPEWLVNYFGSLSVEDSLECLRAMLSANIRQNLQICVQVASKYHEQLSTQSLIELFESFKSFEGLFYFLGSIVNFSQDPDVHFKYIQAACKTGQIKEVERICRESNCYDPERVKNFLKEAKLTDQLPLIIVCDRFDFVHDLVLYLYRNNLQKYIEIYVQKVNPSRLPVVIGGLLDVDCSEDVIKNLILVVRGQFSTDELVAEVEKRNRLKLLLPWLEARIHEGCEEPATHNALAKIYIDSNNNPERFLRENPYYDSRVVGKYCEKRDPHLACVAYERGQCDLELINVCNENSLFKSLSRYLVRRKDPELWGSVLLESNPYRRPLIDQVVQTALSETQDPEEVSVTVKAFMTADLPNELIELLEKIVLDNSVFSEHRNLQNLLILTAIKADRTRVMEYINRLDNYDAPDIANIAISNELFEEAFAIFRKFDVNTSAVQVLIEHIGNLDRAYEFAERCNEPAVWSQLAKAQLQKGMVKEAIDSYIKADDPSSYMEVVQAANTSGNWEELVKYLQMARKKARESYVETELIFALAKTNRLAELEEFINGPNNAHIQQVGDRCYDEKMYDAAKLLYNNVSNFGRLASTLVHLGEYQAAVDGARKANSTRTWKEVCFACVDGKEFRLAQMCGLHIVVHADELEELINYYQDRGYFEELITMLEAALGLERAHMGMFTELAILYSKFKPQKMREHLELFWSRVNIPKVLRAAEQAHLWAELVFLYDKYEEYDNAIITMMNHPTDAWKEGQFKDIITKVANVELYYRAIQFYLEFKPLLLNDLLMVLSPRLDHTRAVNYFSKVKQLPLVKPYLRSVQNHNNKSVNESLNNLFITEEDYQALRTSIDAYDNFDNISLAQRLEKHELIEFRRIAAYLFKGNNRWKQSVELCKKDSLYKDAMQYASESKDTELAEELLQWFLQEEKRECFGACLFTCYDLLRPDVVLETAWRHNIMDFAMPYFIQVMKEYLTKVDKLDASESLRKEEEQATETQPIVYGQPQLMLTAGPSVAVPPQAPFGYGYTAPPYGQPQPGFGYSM

[7] = target: proteins of HEK293T cells transiently overexpressing caspase-6 (Homo sapiens, UniProt P09651); conditions: protein HNRNPA1 (P09651)
Chain of proteins of HEK293T cells transiently overexpressing caspase-6 (Homo sapiens, UniProt P09651) (P09651 whole entry): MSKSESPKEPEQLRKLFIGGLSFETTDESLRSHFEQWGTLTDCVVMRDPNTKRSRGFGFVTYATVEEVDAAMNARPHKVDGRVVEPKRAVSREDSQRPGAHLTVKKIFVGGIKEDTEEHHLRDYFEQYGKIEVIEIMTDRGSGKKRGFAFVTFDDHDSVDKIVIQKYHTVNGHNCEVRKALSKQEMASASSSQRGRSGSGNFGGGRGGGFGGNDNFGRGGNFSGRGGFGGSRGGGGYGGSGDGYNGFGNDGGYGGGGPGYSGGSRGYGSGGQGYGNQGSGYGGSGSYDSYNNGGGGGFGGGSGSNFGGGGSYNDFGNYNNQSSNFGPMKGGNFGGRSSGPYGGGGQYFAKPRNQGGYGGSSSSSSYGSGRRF

[8] = target: proteins of HEK293T cells transiently overexpressing caspase-6 (Homo sapiens, UniProt Q13200); conditions: protein PSMD2 (Q13200)
Chain of proteins of HEK293T cells transiently overexpressing caspase-6 (Homo sapiens, UniProt Q13200) (Q13200 whole entry): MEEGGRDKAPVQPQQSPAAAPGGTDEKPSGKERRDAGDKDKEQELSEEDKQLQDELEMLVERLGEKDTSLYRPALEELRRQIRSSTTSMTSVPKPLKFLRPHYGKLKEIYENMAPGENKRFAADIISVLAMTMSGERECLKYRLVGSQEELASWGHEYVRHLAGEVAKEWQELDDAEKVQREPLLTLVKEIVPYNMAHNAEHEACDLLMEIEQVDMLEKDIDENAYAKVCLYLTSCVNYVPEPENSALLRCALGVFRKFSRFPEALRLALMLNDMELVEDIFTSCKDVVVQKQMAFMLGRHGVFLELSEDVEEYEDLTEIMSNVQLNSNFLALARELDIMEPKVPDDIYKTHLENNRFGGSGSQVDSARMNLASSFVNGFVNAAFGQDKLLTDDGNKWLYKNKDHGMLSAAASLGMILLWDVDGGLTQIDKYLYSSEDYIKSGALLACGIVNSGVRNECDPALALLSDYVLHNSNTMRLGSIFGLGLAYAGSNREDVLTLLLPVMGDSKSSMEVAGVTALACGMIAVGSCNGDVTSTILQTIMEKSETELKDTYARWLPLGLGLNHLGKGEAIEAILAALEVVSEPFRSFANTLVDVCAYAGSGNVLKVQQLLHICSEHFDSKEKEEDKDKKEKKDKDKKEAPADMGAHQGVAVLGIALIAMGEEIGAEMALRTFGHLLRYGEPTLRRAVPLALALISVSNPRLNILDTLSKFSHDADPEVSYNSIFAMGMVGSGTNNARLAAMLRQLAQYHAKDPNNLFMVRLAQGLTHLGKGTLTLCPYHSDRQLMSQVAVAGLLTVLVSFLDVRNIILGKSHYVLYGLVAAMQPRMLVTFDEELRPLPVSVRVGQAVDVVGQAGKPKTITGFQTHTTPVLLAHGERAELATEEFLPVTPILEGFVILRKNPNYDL

[9] = target: proteins of HEK293T cells transiently overexpressing caspase-6 (Homo sapiens, UniProt Q15233); conditions: exp_ref Probe; protein NONO (Q15233); analysis C6
Chain of proteins of HEK293T cells transiently overexpressing caspase-6 (Homo sapiens, UniProt Q15233) (Q15233 whole entry): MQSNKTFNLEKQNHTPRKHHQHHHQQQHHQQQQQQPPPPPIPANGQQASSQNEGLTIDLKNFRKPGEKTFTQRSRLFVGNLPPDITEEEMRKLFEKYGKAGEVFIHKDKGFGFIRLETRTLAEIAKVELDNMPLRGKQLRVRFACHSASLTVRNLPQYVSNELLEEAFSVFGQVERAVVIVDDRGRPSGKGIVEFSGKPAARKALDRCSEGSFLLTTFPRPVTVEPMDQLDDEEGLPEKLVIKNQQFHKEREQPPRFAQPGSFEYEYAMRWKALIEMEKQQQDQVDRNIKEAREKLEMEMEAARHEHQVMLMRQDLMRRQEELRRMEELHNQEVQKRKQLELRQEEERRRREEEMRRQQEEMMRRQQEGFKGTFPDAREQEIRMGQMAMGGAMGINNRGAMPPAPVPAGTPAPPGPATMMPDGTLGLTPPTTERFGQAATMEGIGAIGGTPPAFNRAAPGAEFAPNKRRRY

[10] = target: proteins of HEK293T cells transiently overexpressing caspase-6 (Homo sapiens, UniProt Q9BT22); conditions: exp_ref Probe; protein ALG1 (Q9BT22); analysis C6
[11] = target: proteins of HEK293T cells transiently overexpressing caspase-6 (Homo sapiens, UniProt P34932); conditions: Probe; protein HSPA4 P34932
[12] = target: proteins of HEK293T cells transiently overexpressing caspase-6 (Homo sapiens, UniProt Q13085)
[13] = target: proteins of HEK293T cells transiently overexpressing caspase-6 (Homo sapiens, UniProt Q13347); conditions: protein EIF3I (Q13347); exp_ref Probe; analysis C6
Chain of proteins of HEK293T cells transiently overexpressing caspase-6 (Homo sapiens, UniProt Q13347) (Q13347 whole entry): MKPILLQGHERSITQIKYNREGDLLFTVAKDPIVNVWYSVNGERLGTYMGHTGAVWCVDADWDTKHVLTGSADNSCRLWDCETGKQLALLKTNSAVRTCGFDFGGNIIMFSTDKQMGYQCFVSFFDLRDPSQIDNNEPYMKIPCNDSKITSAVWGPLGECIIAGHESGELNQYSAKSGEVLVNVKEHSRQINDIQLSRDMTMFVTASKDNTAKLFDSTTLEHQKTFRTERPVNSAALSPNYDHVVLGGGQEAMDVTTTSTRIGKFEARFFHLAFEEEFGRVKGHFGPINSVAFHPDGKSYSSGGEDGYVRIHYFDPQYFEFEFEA

[14] = target: proteins of HEK293T cells transiently overexpressing caspase-6 (Homo sapiens, UniProt P30050); conditions: protein RPL12 (P30050)
[15] = target: proteins of HEK293T cells transiently overexpressing caspase-6 (Homo sapiens, UniProt P53396); conditions: exp_ref Probe; protein ACLY (P53396); analysis C6
[16] = target: T2, proteins of HEK293T cells transiently overexpressing caspase-6 (Homo sapiens, UniProt Q00325); conditions: protein SLC25A3 (Q00325)
T2 sequence (Q00325 50-362): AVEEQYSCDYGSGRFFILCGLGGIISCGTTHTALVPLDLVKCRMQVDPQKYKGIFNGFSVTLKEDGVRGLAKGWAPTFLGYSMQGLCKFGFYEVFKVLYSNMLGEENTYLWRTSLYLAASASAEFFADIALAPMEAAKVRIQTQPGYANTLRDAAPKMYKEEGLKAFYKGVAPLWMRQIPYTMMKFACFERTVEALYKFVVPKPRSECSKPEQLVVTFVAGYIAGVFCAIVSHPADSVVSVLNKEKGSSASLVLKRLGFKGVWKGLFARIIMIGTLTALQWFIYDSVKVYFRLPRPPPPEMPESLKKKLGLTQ

[17] = target: proteins of HEK293T cells transiently overexpressing caspase-6 (Homo sapiens, UniProt P07195)
Chain of proteins of HEK293T cells transiently overexpressing caspase-6 (Homo sapiens, UniProt P07195) (P07195 whole entry): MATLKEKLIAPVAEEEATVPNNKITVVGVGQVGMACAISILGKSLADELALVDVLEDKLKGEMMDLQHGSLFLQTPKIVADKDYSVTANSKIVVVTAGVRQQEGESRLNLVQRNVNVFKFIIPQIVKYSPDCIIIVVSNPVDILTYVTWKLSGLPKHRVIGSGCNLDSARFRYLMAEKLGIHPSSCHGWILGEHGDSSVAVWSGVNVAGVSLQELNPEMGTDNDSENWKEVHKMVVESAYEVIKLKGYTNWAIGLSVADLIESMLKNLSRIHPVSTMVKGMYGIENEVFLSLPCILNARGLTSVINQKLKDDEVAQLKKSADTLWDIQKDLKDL

[18] = target: proteins of HEK293T cells transiently overexpressing caspase-6 (Homo sapiens, UniProt P13797); conditions: exp_ref Probe; protein PLS3 (P13797); analysis C6
[19] = target: proteins of HEK293T cells transiently overexpressing caspase-6 (Homo sapiens, UniProt P00558); conditions: exp_ref Probe; protein PGK1 (P00558); analysis C6
[20] = target: proteins of HEK293T cells transiently overexpressing caspase-6 (Homo sapiens, UniProt P32119); conditions: exp_ref Probe; protein PRDX2 (P32119); analysis C6
Chain of proteins of HEK293T cells transiently overexpressing caspase-6 (Homo sapiens, UniProt P32119) (P32119 whole entry): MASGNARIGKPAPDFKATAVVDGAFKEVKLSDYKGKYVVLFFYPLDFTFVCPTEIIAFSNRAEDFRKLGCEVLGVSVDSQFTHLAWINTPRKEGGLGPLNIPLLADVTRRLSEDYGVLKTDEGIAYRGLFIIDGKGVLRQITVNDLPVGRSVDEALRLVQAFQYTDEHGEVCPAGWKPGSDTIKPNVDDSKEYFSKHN

C#CCOc1ccc([C@@H]2C[C@@H](C(=O)Nc3ccc(OC(F)(F)F)cc3)CN(S(=O)(=O)C=C)C2)cc1 (relative stereo) [13-t] showed an enrich.exp.med [1] of -0.3231, an enrich.exp.med ([2]; exp_ref Probe, analysis C6) of -0.3533 and an enrich.exp.med.lin [2] of 0.7828. It also gave an enrich.exp.med.log2 [2] of -0.3533, an enrich.exp.med [3] of 0.5734 and an enrich.exp.med [4] of 0.5934. It also gave an enrich.exp.med [5] of 0.5676, an enrich.exp.med [6] of -0.1743 and an enrich.exp.med ([7]; exp_ref Probe, analysis C6) of 0.3216. For the same molecule, the enrich.exp.med.lin [7] was 1.2497, the enrich.exp.med.log2 [7] was 0.3216 and the enrich.exp.med ([8]; exp_ref Probe, analysis C6) was 1.027. The enrich.exp.med.lin [8] was 2.037, the enrich.exp.med.log2 [8] was 1.027 and the enrich.exp.med [9] was 0.7906. For the same molecule, the enrich.exp.med [10] was 0.4836, the enrich.exp.med [11] was -1.079 and the enrich.exp.med ([12]; Probe, protein ACACA Q13085) was -2.123. The enrich.exp.med.lin ([12]; protein ACACA (Q13085)) was 0.2296, the enrich.exp.med.log2 ([12]; protein ACACA (Q13085)) was -2.123 and the enrich.exp.med [13] was 1.576. It also gave an enrich.exp.med ([14]; exp_ref Probe, analysis C6) of 0.2557, an enrich.exp.med.lin [14] of 1.194 and an enrich.exp.med.log2 [14] of 0.2557. The enrich.exp.med [15] was -0.1134, the enrich.exp.med ([16]; exp_ref Probe, analysis C6) was 0.6055 and the enrich.exp.med.lin [16] was 1.522. The enrich.exp.med.log2 [16] was 0.6055, the enrich.exp.med ([17]; Probe, protein LDHB P07195) was -0.537 and the enrich.exp.med.lin ([17]; protein LDHB (P07195)) was 0.6892. The enrich.exp.med.log2 ([17]; protein LDHB (P07195)) was -0.537, the enrich.exp.med [18] was 0.7997 and the enrich.exp.med [19] was 0.1871. It also gave an enrich.exp.med [20] of 0.2933.
